Our source for the microsomal CLint values is the ASAP Discovery antiviral challenge data (2025).

Values joined by “and” are separate entries in the source; they are usually repeats but may differ in a detail not shown here. Equal entries are not always repeated.

The conditions of one data set: human; liver_microsomes.
Take `O=C(Nc1ccccc1)Nc1ccc(C(=O)NC2c3cccc(O)c3CC2C(=O)O)cc1` (stereo not given): the microsomal CLint was determined as 9 µL/min/mg.

In turn, `CC(C)[C@H](Nc1ncnc2[nH]ccc12)c1ccc2c(c1)S(=O)(=O)CCC2` (racemic) registered a microsomal CLint of 37 µL/min/mg. This microsomal CLint is about 4.1-fold higher than that of the molecule before. For the molecule `CC(C)(C)[C@H](Nc1ncnc2[nH]c(-c3cnn(CC(N)=O)c3)cc12)c1ccc2c(n1)OCCO2` (single isomer, unassigned), the microsomal CLint is 27 µL/min/mg and 42 µL/min/mg. On the same count and under the same terms, for `CC(C)[C@H](Nc1ncnc2[nH]c(-c3cnn(CC(N)=O)c3)cc12)c1ccc2c(c1)NC(=O)CO2` (racemic) the value was 17 µL/min/mg; for `CC(C)[C@H](Nc1ncnc2[nH]c(-c3cnn(C)c3C#N)cc12)c1ccc2c(n1)NC(=O)CO2` (racemic), 70 µL/min/mg. Still for that read-out and setting: the result for `CC(C)[C@H](Nc1ncnc2[nH]ccc12)c1ccc2c(c1)S(=O)(=O)CCO2` (racemic) reads 18 µL/min/mg. Still for that read-out and setting: for `CCNC(=O)c1cc2c(N[C@H](c3ccc4c(c3)S(=O)(=O)NCC4)C(C)C)ncnc2[nH]1` (racemic) the value was 85 µL/min/mg. `CNC(=O)c1c[nH]c2ncnc(N[C@H](c3ccc4c(c3)NC(=O)CO4)C(C)C)c12` (racemic) displayed a microsomal CLint of 86 µL/min/mg. Molecule `CNCc1cc(-c2cc3c(N[C@H](c4ccc5c(c4)S(=O)(=O)CCC5)C(C)C)ncnc3[nH]2)co1` (racemic) gave a microsomal CLint of 57 µL/min/mg. In the case of `O=C(O)c1cc(Cl)ccc1NS(=O)(=O)c1ccc(Oc2ccccc2Cl)cc1`, the microsomal CLint amounted to 155 µL/min/mg. Compared with the last molecule, the microsomal CLint is about 2.7-fold higher. In turn, `NCc1cccc(CNC(=O)[C@H](NC(=O)OCc2ccccc2)c2ccc(OCc3ccccc3)cc2)c1` (racemic) gave a microsomal CLint of 3.89 µL/min/mg. Still for that read-out and setting: for `CNC(=O)c1cc2c(N[C@H](c3ccc4c(c3)NC(=O)CO4)C(C)C)ncnc2[nH]1` (single isomer, unassigned) the value was 175 µL/min/mg; for `CC(C)[C@H](Nc1ncnc2[nH]c(-c3cnn(C)c3C#N)cc12)c1ccc2c(n1)NC(=O)CO2` (single isomer, unassigned), 137 µL/min/mg and 51 µL/min/mg; for `CC(C)[C@H](Nc1ncnc2[nH]c(-c3cnn(C)c3C#N)cc12)c1ccc2c(n1)OCCO2` (racemic), 56 µL/min/mg.

On to `O=C(Nc1cc(Br)c2c(c1)CNC2)c1cc(F)cc2[nH]ncc12`, for which the microsomal CLint came out at 13.6 µL/min/mg. Against the preceding molecule, the microsomal CLint is about 4.1-fold lower.

For the molecule `CC(C)[C@H](Nc1ncnc2[nH]c(-c3cnn(CCC(N)=O)c3)cc12)c1ccc2c(c1)OCCO2` (racemic), the microsomal CLint is 99 µL/min/mg.

The molecule `CC(C)[C@H](Nc1ncnc2[nH]c(-c3cnn(CC(N)=O)c3)cc12)c1ccc2c(n1)OCCO2` (racemic) returned a microsomal CLint of 14 µL/min/mg. Same read-out and setting: for `Cc1cc(CCCOc2c(C)cc(-c3noc(C(F)(F)F)n3)cc2C)on1` the value was 11.6 µL/min/mg; for `CC(C)[C@H](Nc1ncnc2[nH]c(-c3cnn(C)c3)cc12)c1ccc2c(c1)S(=O)(=O)NCC2` (racemic), 120 µL/min/mg; for `COc1cc(Cc2c(-c3ccc(F)cc3)noc2C)nc(N2CCNCC2)n1`, 15 µL/min/mg. Still for that read-out and setting: for `CNC(=O)Cn1cc(-c2cc3c(N[C@H](c4ccc5c(c4)S(=O)(=O)CCC5)C(C)C)ncnc3[nH]2)cn1` (racemic) the value was 94 µL/min/mg; for `CC(C)[C@H](Nc1ncnc2[nH]cc(C(N)=O)c12)c1ccc2c(c1)OCCO2` (racemic), 143 µL/min/mg; for `COc1ccc(C(=O)Nc2cccc(/C=C3/C(=O)NC(=O)c4ccccc43)c2)cc1`, 180 µL/min/mg.

Turning to `Cc1nn(C)cc1-c1cc2c(N[C@H](c3ccc4c(c3)S(=O)(=O)CCC4)C(C)C)ncnc2[nH]1` (single isomer, unassigned), the microsomal CLint is 273 µL/min/mg and 251 µL/min/mg.

The conditions of the next data set: mouse; liver_microsomes.
Regarding `CNC(=O)Cn1cc(-c2cc3c(N[C@H](c4ccc5c(c4)OCCO5)C(C)C)ncnc3[nH]2)cn1` (racemic), the microsomal CLint came to 47 µL/min/mg. Still for that read-out and setting: the result for `C[C@H](C(=O)O)[C@@H](NC(=O)c1ncnc2[nH]ccc12)c1ccc(Br)cc1` (single isomer, unassigned) reads 4 µL/min/mg; that for `CC(C)[C@@H](Nc1ncnc2[nH]c(-c3cnn(C)c3C#N)cc12)c1ccc2c(c1)OCCO2`, 129 µL/min/mg. `COc1ccc([C@H](Cc2nnn[nH]2)NC(=O)c2ncnc3[nH]ccc23)cc1` (single isomer, unassigned) returned a microsomal CLint of 7 µL/min/mg. Same read-out and setting: for `CNC(=O)Cn1cc(-c2cc3c(N[C@H](c4ccc5c(c4)S(=O)(=O)CCC5)C(C)C)ncnc3[nH]2)cn1` (single isomer, unassigned) the value was 111 µL/min/mg and 44 µL/min/mg; for `COc1ccc2c(c1)CCN(c1ncnc3[nH]ccc13)[C@H]2C(C)C` (racemic), 321 µL/min/mg; for `CC(C)[C@H](Nc1ncnc2[nH]c(-c3cnn(C)c3C#N)cc12)c1ccc2c(c1)OCCO2`, 257 µL/min/mg. Still for that read-out and setting: the result for `CC(C)[C@H](Nc1ncnc2[nH]c(-c3cnn(CC(=O)N(C)C)c3)cc12)c1ccc2c(c1)OCCO2` (racemic) reads 59 µL/min/mg. On the same count and under the same terms, for `O=C(Nc1ccccc1)Nc1ccc(C(=O)NC2c3cccc(O)c3CC2C(=O)O)cc1` (stereo not given) the value was 2 µL/min/mg. As for `CC(C)[C@H](Nc1ncnc2[nH]ccc12)c1ccc2c(c1)S(=O)(=O)CCC2` (racemic), the intrinsic metabolic clearance (microsomal CLint) turned out to be 138 µL/min/mg. This microsomal CLint is about 69-fold higher than that of the molecule before.

For the molecule `CC(C)(C)[C@H](Nc1ncnc2[nH]c(-c3cnn(CC(N)=O)c3)cc12)c1ccc2c(n1)OCCO2` (single isomer, unassigned), the microsomal CLint was 10 µL/min/mg and 30 µL/min/mg. Same read-out and setting: the result for `CC(C)[C@H](Nc1ncnc2[nH]c(-c3cnn(CC(N)=O)c3)cc12)c1ccc2c(c1)NC(=O)CO2` (racemic) reads 11 µL/min/mg; that for `CC(C)[C@H](Nc1ncnc2[nH]c(-c3cnn(C)c3C#N)cc12)c1ccc2c(n1)NC(=O)CO2` (racemic), 145 µL/min/mg.

Regarding `CC(C)[C@H](Nc1ncnc2[nH]ccc12)c1ccc2c(c1)S(=O)(=O)CCO2` (racemic), the microsomal CLint amounted to 69 µL/min/mg. As for `CCNC(=O)c1cc2c(N[C@H](c3ccc4c(c3)S(=O)(=O)NCC4)C(C)C)ncnc2[nH]1` (racemic), the microsomal CLint stood at 45 µL/min/mg. Still for that read-out and setting: the result for `CNC(=O)c1c[nH]c2ncnc(N[C@H](c3ccc4c(c3)NC(=O)CO4)C(C)C)c12` (racemic) reads 113 µL/min/mg.

Broadly, the microsomal CLint is the rate of metabolic loss divided by the concentration. A high value points to rapid turnover.
